Reference: patent US20230027985A1, “SUBSTITUTED HYDANTOINAMIDES AS ADAMTS7 ANTAGONISTS” (Bayer Aktiengesellschaft, priority 2019, published 2023)
pIC50: −log10 of the molar value.

What was measured:
ADAMTS4 = target: T1, ADAMTS4 (Homo sapiens, UniProt O75173); assay: Selectivity assay for ADAMTS-7 modulators (FRET), ADAMTS4; format: biochemical; conditions: 50 nM enzyme (R&D 4307-AD), 1 μM Dabcyl/Edans FRET substrate, 120 min at 32° C.
T1 construct: purchased R&D 4307-AD
T1 sequence (O75173 213-685 limits assumed): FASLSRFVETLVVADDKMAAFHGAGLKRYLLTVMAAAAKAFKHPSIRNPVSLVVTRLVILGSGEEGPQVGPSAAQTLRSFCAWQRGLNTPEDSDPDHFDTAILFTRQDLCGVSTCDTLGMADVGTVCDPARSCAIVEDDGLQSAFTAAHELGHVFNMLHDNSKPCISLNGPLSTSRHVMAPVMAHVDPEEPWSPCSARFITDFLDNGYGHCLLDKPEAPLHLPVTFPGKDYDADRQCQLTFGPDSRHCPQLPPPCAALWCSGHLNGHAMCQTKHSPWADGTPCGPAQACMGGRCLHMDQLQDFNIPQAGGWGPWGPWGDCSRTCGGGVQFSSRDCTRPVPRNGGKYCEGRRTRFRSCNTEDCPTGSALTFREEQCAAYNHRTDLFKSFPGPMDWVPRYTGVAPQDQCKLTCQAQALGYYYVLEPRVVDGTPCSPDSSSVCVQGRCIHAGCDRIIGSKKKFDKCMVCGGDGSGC
Summary of the method: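 Enzyme in 50 mM Tris pH 7.5, 150 mM NaCl, 10 mM CaCl2, 0.05% Brij, preincubated with compound in DMSO; reaction started with FRET substrate. Fluorescence increase read after 120 min at 32° C; IC50 from percent inhibition versus compound concentration.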

[1] = target: T2, Purified recombinant ADAMTS-7 (rat prodomain/human catalytic domain, SEQ ID No. 01 or 02) (Homo sapiens, UniProt Q9UKP4); assay: Assay for ADAMTS-7 enzymatic activity (FRET substrate cleavage); format: biochemical; conditions: FRET substrate SEQ ID No. 11, 120 min at 32° C.; read-out: ADAMTS7-IC50
T2 construct: rat ADAMTS-7 signal peptide + prodomain (rat 1-217, Q1EHB3) (N); 2xStrep tag (C); 6xHis tag (C); made in house; host or cells: Expi293 cells
T2 sequence (Q9UKP4 237-537): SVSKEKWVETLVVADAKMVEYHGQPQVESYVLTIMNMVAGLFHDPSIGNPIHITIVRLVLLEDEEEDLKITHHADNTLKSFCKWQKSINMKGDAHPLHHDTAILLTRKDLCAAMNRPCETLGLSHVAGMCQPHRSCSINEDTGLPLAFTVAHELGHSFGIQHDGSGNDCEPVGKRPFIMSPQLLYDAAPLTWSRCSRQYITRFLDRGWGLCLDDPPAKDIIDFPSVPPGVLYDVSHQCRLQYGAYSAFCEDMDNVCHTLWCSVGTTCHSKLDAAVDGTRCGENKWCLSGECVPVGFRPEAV
Summary of the method: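 IC50 values were fitted from percent inhibition across test-compound concentrations. Fluorescence gain (ex 485, em 520 nm) reports cleavage of a thrombospondin-1 (275-289) FRET peptide with QXL520 quencher, after 120 min at 32 °C. The enzyme, about 20 nM, was in HEPES pH 8.0 buffer with NaCl, CaCl2, ZnCl2 and Brij.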

pIC50 (ADAMTS4)	pIC50 [1]	SMILES
5.66	6.77	Cc1cccc(-n2ncc(C(=O)NC[C@@]3(C4CC4)NC(=O)NC3=O)n2)c1 [Example 18, N-{[(4R)-4-cyclopropyl-2,5-dioxoimidazolidin-4-yl]methyl}-2-(3-methylphenyl)-2H-1,2,3-triazole-4-carboxamide]
5.22	7.00	COc1ccc(-n2ncc(C(=O)NC[C@@]3(C4CC4)NC(=O)NC3=O)n2)cc1 [Example 27, N-{[(4R)-4-cyclopropyl-2,5-dioxoimidazolidin-4-yl]methyl}-2-(4-methoxyphenyl)-2H-1,2,3-triazole-4-carboxamide]
4.17	6.06	CS(=O)(=O)c1ccc(-n2ncc(C(=O)NC[C@@]3(C4CC4)NC(=O)NC3=O)n2)cc1 [Example 28, N-{[(4R)-4-cyclopropyl-2,5-dioxoimidazolidin-4-yl]methyl}-2-[4-(methylsulfonyl)phenyl]-2H-1,2,3-triazole-4-carboxamide]
6.60	8.30	O=C1NC(=O)[C@](CNC(=O)c2cnn(-c3ccc(F)c(Cl)c3)n2)(C2CC2)N1 [Example 29, 2-(3-chloro-4-fluorophenyl)-N-{[(4R)-4-cyclopropyl-2,5-dioxoimidazolidin-4-yl]methyl}-2H-1,2,3-triazole-4-carboxamide]
6.30	7.92	O=C1NC(=O)[C@](CNC(=O)c2cnn(-c3ccc(Cl)c(F)c3)n2)(C2CC2)N1 [Example 30, 2-(4-chloro-3-fluorophenyl)-N-{[(4R)-4-cyclopropyl-2,5-dioxoimidazolidin-4-yl]methyl}-2H-1,2,3-triazole-4-carboxamide]
5.37	7.39	O=C1NC(=O)[C@](CNC(=O)c2cnn(-c3ccc(F)cc3F)n2)(C2CC2)N1 [Example 31, N-{[(4R)-4-cyclopropyl-2,5-dioxoimidazolidin-4-yl]methyl}-2-(2,4-difluorophenyl)-2H-1,2,3-triazole-4-carboxamide]
6.04	7.46	O=C1NC(=O)[C@](CNC(=O)c2cnn(-c3ccc(Cl)c(Cl)c3)n2)(C2CC2)N1 [Example 32, N-{[(4R)-4-cyclopropyl-2,5-dioxoimidazolidin-4-yl]methyl}-2-(3,4-dichlorophenyl)-2H-1,2,3-triazole-4-carboxamide]
5.85	7.24	O=C1NC(=O)[C@](CNC(=O)c2cnn(-c3ccc(Br)cc3)n2)(C2CC2)N1 [Example 33, 2-(4-bromophenyl)-N-{[(4R)-4-cyclopropyl-2,5-dioxoimidazolidin-4-yl]methyl}-2H-1,2,3-triazole-4-carboxamide]
5.85	7.59	O=C1NC(=O)[C@](CNC(=O)c2cnn(-c3ccc(F)cc3)n2)(C2CC2)N1 [Example 34, N-{[(4R)-4-cyclopropyl-2,5-dioxoimidazolidin-4-yl]methyl}-2-(4-fluorophenyl)-2H-1,2,3-triazole-4-carboxamide]
5.51	7.13	O=C1NC(=O)[C@](CNC(=O)c2cnn(-c3cccc(F)c3F)n2)(C2CC2)N1 [Example 35, N-{[(4R)-4-cyclopropyl-2,5-dioxoimidazolidin-4-yl]methyl}-2-(2,3-difluorophenyl)-2H-1,2,3-triazole-4-carboxamide]
5.26	6.96	O=C1NC(=O)[C@](CNC(=O)c2cnn(-c3cc(F)ccc3F)n2)(C2CC2)N1 [Example 36, N-{[(4R)-4-cyclopropyl-2,5-dioxoimidazolidin-4-yl]methyl}-2-(2,5-difluorophenyl)-2H-1,2,3-triazole-4-carboxamide]
5.12	6.74	O=C1NC(=O)[C@](CNC(=O)c2cnn(-c3ccccc3F)n2)(C2CC2)N1 [Example 37, N-{[(4R)-4-cyclopropyl-2,5-dioxoimidazolidin-4-yl]methyl}-2-(2-fluorophenyl)-2H-1,2,3-triazole-4-carboxamide]
